# Columns and labels:
# [1] = tested on: proMMP-9 production by human TNFα stimulated THP-1 cell; experiment: Action of human TNFα stimulated THP-1 cell on proMMP-9 production (ELISA of culture supernatant); assay type: cell-based; conditions: THP-1 cells, human TNFα 10 ng/mL, 24 hr; IC50 from 10, 100 and 1,000 nmol/L; read-out: Experimental Example 1 proMMP-9 production suppression (IC50)
# Experimental: Action of Human TNFα Stimulated THP-1 Cell on proMMP-9 Production
# (§1) THP-1 cell (human monocytic leukemia cell line) was adjusted to 1×10^7 cells/mL in a culture medium (10% fetal bovine serum/RPMI1640 medium), and dispensed to a 96 well multiplate. This was equilibrated under the conditions of 37° C./5% CO2, and a culture medium containing human TNFα (final concentration 10 ng/mL) and a test compound was added thereto. After incubation under the conditions of 37° C./5% CO2 for 24 hr, the culture medium was centrifugated and the culture supernatant was collected, which was subjected to the following measurement.
# Quantification of proMMP-9 in Culture Supernatant
# The proMMP-9 concentration of the collected culture supernatant was quantified using a commercially available measurement reagent (manufactured by GE Healthcare, MMP-9, Human, Biotrak ELISA System).
# Calculation of proMMP-9 Suppression Rate
# The proMMP-9 suppression rate of the test compound was calculated from the following formula: % suppression=100−((Test−Min)/(Max−Min)×100) wherein Max is proMMP-9 concentration of culture supernatant induced by stimulation with human TNFα, without addition of a test compound (added with solvent alone) • Min is proMMP-9 concentration of culture supernatant without addition of a test compound (added with solvent alone) and without stimulation with human TNFα, and • Test is proMMP-9 concentration of culture supernatant induced by stimulation with human TNFα when a test compound is added.
# Furthermore, the concentration of the test compound necessary for suppressing proMMP-9 production by human TNFα stimulated THP-1 cell by 50% (IC50 value) was calculated from 3 points of proMMP-9 suppression rate at test compound concentrations of 10, 100 and 1,000 nmol/L.
# [2] = tested on: proMMP-2 production by THP-1 cell; experiment: Action of THP-1 cell on hemostatic type proMMP-2 production (ELISA of culture supernatant); assay type: cell-based, human; conditions: THP-1 cells, 24 hr
# Experimental: Action of THP-1 Cell on Hemostatic Type proMMP-2 Production
# as §1, with “containing” for “containing human TNFα (final concentration 10 ng/mL) and”
# Quantification of proMMP-2 in Culture Supernatant
# The proMMP-2 concentration of the collected culture supernatant was quantified using a commercially available measurement reagent (manufactured by GE Healthcare, MMP-2, Human, Biotrak ELISA System).
# Calculation of proMMP-2 Suppression Rate
# The proMMP-2 suppression rate of the test compound was calculated from the following formula: % suppress=100−((Test/Cont)×100). wherein Cont is proMMP-2 concentration of culture supernatant without addition of a test compound (added with solvent alone) and Test is proMMP-2 concentration of culture supernatant with addition of a test compound.
# [3] = tested on: rat dinitrobenzene-induced colitis model; experiment: Suppressive action on large intestine weight increase of rat dinitrobenzene-induced colitis model; assay type: in vivo; conditions: Wistar rat, 30 mg/kg oral once a day to day 7, measured day 8
# Experimental: Suppressive Action on Large Intestine Weight Increase of Rat Dinitrobenzene-Induced Colitis Model
# A dinitrobenzene solution (30 mg/0.1 mL) was injected into the large intestine of anesthetized rats (Wistar, male, 6-week-old). A test compound was orally administered once a day from the previous day of the dinitrobenzene injection to day 7 at a dose of 30 mg/kg. On day 8, the large intestine was isolated from euthanized rats, and the wet weight thereof was measured. The large intestine weight was amended to the weight per 100 g body weight of the rats on day 8.
# [4] = tested on: rat adjuvant induced arthritis model; experiment: Suppressive action on hindpaw edema of rat adjuvant induced arthritis model; assay type: in vivo; conditions: LEW rat, difference of hindpaw volume day 15 vs day 21, in mL (unit assumed)
# Experimental: Suppressive Action on Hindpaw Edema of Rat Adjuvant Induced Arthritis Model
# Anesthetized rats (LEW, male, 6-week-old) were immunized with M. Butyricum (5 mg/mL) at a dose of 0.1 mL/body by subcutaneous administration from the tail root. […] The test compound was orally administered once a day from immediately after allocation on day 15 to day 20 at doses of 3 and 30 mg/kg, and the hindpaw volume was measured again on day 21. The amount of hindpaw edema was the difference in the amount between hindpaw volume on day 15 and that on day 21.
# [5] = tested on: rat monoiodoacetic acid-induced osteoarthritis model; experiment: Suppressive action on articular joints injury of rat monoiodoacetic acid-induced osteoarthritis model; assay type: in vivo; conditions: LEW rat
# Experimental: Suppressive Action on Articular Joints Injury of Rat Monoiodoacetic Acid-Induced Osteoarthritis Model
# Monoiodoacetic acid solution (0.3 mg/25 μL) was injected into the right hindpaw knee joint cavity of anesthetized rats (LEW, male, 7-week-old). […] On day 7, right hindpaw knee joint was taken from euthanized rats, and fixed with 10% neutral formalin solution. A pathology specimen of knee joint was prepared, stained with Hematoxylin Eosin and Safranine O, and the state of joint cartilage injury was scored under microscopic observation. For articular joint injury scores, changes in each pathological finding in medial condyle of femur and medial condyle of tibia (cartilage surface tuberosity, erosion/ulcer/fibrillation, chondrocyte disorganization/disappearance/hypertrophy, reduction of Safranine staining) were divided into mild, moderate and severe according to the method of Kobayashi et al. (Kobayashi K et al. J. Vet. Med. Sci. 65, 1195 1199 2003), and indicated in the scores of 1, 2 and 3 and totaled. Furthermore, an average of the score of medial condyle of femur and that of medial condyle of tibia was determined and used as an articular joint injury score.
# [6] = 3 mg/kg oral once a day to day 6, scored day 7
# [7] = 10 mg/kg oral once a day to day 6, scored day 7
SMILES,IC50 [1] [nM],"Experimental Example 2 proMMP-2 production suppression (% suppression, 10 μM) [2] [%]",also measured
"Cc1ccc(N2CCN(C(=O)c3c(F)cc(N4CCOC4=O)cc3F)CC2)c(C)c1 [Example 1, 3-{4-[4-(2,4-dimethylphenyl)piperazine-1-carbonyl]-3,5-difluorophenyl}oxazolidin-2-one]",44,17.4,–
"Cc1ccc(N2CCN(C(=O)c3ccc(N4CCOC4=O)cc3C)CC2)c(C)c1 [Example 6, 3-{4-[4-(2,4-dimethylphenyl)piperazine-1-carbonyl]-3-methylphenyl}oxazolidin-2-one]",59,12.6,–
"Cc1ccc(N2CCN(C(=O)c3ccc(N4CCOC4=O)cc3)CC2)c(C)c1 [Example 8, 3-{4-[4-(2,4-dimethylphenyl)piperazine-1-carbonyl]phenyl}oxazolidin-2-one]",48,11.6,"large intestine weight (g/100 g body weight) [3]: 0.457 ± 0.031 g/100 g body weight; hindpaw edema volume ([4]; 3 mg/kg oral once a day day 15 to day 20): 0.27 ± 0.17; hindpaw edema volume ([4]; 30 mg/kg oral once a day day 15 to day 20): 0.20 ± 0.18; articular joint injury score of compound administration group [5, 6]: 4.4 ± 0.5"
"Cc1ccc(N2CCN(C(=O)c3ccc(N4CCOC4=O)cc3S(C)(=O)=O)CC2)c(C)c1 [Example 11, 3-{4-[4-(2,4-dimethylphenyl)piperazine-1-carbonyl]-3-methanesulfonylphenyl}oxazolidin-2-one]",40,12.4,–
"Cc1ccc(N2CCN(C(=O)c3ccc(N4C(=O)OC[C@H]4CO)cc3S(C)(=O)=O)CC2)c(C)c1 [Example 19, (R)-3-{4-[4-(2,4-dimethylphenyl)piperazine-1-carbonyl]-3-methanesulfonylphenyl}-4-hydroxymethyloxazolidin-2-one]",11,22.5,–
"Cc1ccc(C(=O)C2CCN(C(=O)c3ccc(N4CCOC4=O)nc3)CC2)cc1 [Example 42, 3-{5-[4-(4-methylbenzoyl)piperidine-1-carbonyl]pyridin-2-yl}oxazolidin-2-one]",–,–,"articular joint injury score of compound administration group [5, 7]: 3.8 ± 0.7"
"Cc1cnc(N2CCN(C(=O)c3ccc(N4C(=O)OC[C@H]4C)cc3S(C)(=O)=O)CC2)c(C)c1 [Example 81, (R)-3-{4-[4-(3,5-dimethylpyridin-2-yl)piperazine-1-carbonyl]-3-methanesulfonylphenyl}-4-methyloxazolidin-2-one]",–,–,"articular joint injury score of compound administration group [5, 7]: 4.4 ± 0.4"
"Cc1cnc(N2CCN(C(=O)c3ccc(N4C(=O)OC[C@H]4C)nc3)CC2)c(C)c1.Cl.Cl [Example 109, (R)-3-{5-[4-(3,5-dimethylpyridin-2-yl)piperazine-1-carbonyl]pyridin-2-yl}-4-methyloxazolidin-2-one 2hydrochloride]",–,–,"articular joint injury score of compound administration group [5, 6]: 4.1 ± 0.4"

# From US8354401B2, “Oxazolidinone amide aromatic compounds for supressing MMP-9 production” (Mitsubishi Tanabe Pharma Corporation, priority 2008, dated 2013)
